Like-named read-outs stand apart in the source and are kept apart here.

In test [1] the target is human HSV DNA polymerase UL30 (Human herpesvirus 1 (strain 17) (HHV-1) (Human herpes simplex virus 1), UniProt P04293). Kind of test: HSV polymerase biochemical assay (molecular beacon-based). The method in brief:
(§1)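 Full-length wild-type N-terminal MBP-fusion polymerases from sf9 cells were used at 100 pM (CMV) or 625 pM (HSV) in Tris pH 7.5, 10 mM MgCl2, and preincubated with inhibitor for 30 min at RT. Reactions with 1.25 uM each dNTP, 200 nM primer and 100 nM molecular beacon ran 60 min (CMV) or 20 min (HSV) at RT. Fluorescence was read at 480/535 nm and IC50 derived.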

For test [2], the target named is human CMV DNA polymerase UL54 (Human cytomegalovirus (strain AD169) (HHV-5) (Human herpesvirus 5), UniProt P08546). Kind of test: CMV polymerase biochemical assay (molecular beacon-based). The method, boiled down: as §1
Test [3] deals with Luciferase-encoding HCMV, AD169 strain. Kind of test: CMV Luciferase assay (cellular herpesvirus replication). The test is classed as cell-based. The method, boiled down: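 Reporter HCMV AD169 with luciferase driven by late pp28 promoter, so signal requires viral DNA replication; NN-NHDF fibroblasts in 2% FBS medium, compound (0.0159–50 or 0.00318–10 μM, 0.5% DMSO) added 1 h before infection at MOI 1. Luminescence read 72 hpi; EC50 from 4-parameter fit of control-normalized %.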

[4] abbreviates: Human betaherpesvirus 5, AD169, read-out: CMV-Luc Cellular EC50.

One may read the IC50 as the concentration that gives 50% inhibition. Broadly, the EC50 is the concentration needed to bring the measured effect to its halfway point. As to `CC(C)(CN)S(=O)(=O)C1(CN2CCn3c(ccc(C(=O)NCc4ccc(Cl)cc4)c3=O)C2=O)CC1` [Example 181, 2-((1-((1-amino-2-methylpropan-2-yl)sulfonyl)cyclopropyl)methyl)-N-(4-chlorobenzyl)-1,6-dioxo-1,3,4,6-tetrahydro-2H-pyrido[1,2-a]pyrazine-7-carboxamide], the figures for the half-inhibitory concentration (IC50) in test [1] and in test [2] were 37.4 nM and 1.1 nM, respectively. Further, the EC50 in test [3] (setting [4]) came to 5.1 nM.

For `O=C(NCc1ccc(Cl)cc1)c1ccc2n(c1=O)CCN(CC1(S(=O)(=O)C3CC3)CC1)C2=O` [Example 2], the IC50 in test [1] is 15.5 nM; in test [2], 0.2 nM. The EC50 in test [3] (setting [4]) was 8.1 nM.

Take `O=C(NCc1ccc(Cl)cc1)c1cc(CF)c2n(c1=O)CCN(CCN1CCCS1(=O)=O)C2=O` [Example 141]: the values for the IC50 in test [1] and in test [2] were 328 nM and 72.8 nM, respectively. The EC50 in test [3] (setting [4]) was 1650 nM.

Regarding `COCC1(CN2CCn3c(ccc(C(=O)NCc4ccc(Cl)cc4)c3=O)C2=O)CC1` [Example 69, N-(4-chlorobenzyl)-2-((1-(methoxymethyl)cyclopropyl)methyl)-1,6-dioxo-2,3,4,6-tetrahydro-1H-pyrido[1,2-a]pyrazine-7-carboxamide], the half-inhibitory concentration (IC50) in test [1] was found to be 5250 nM; in test [2], 656 nM. Further, in test [3] (setting [4]), the EC50 is 10000 nM.

In the case of `CC(C)(CO)S(=O)(=O)C1(CN2CCn3c(ccc(C(=O)NCc4ccc(C#N)nc4)c3=O)C2=O)CC1` [Example 183], the IC50 in test [1] is 36.7 nM; in test [2] it was 2.9 nM. For the same molecule, the EC50 in test [3] (setting [4]) was 145 nM.

Consider `Cc1cc(C(=O)NCc2ccc(C#N)c(F)c2)c(=O)n2c1C(=O)N(CC1(S(=O)(=O)C3CC3)CC1)CC2` [Example 93-3], for which the IC50 in test [1] was 28.3 nM; in test [2], 5.9 nM. Moreover, the EC50 in test [3] (setting [4]) was 21 nM.

`CCS(=O)(=O)CCN1CCn2c(ccc(C(=O)NCc3ccc(Cl)cc3)c2=O)C1=O` [Example 53]: the IC50 amounted to 365 nM in test [1] and 149 nM in test [2]. Further, the EC50 in test [3] (setting [4]) is 1460 nM.

On to `CS(=O)(=O)C1(CN2CCn3c(c(F)cc(C(=O)NCc4ccc(C#N)cc4)c3=O)C2=O)CC1` [Example 164], for which the IC50 in test [1] is 305 nM; in test [2], 13 nM. Also, in test [3] (setting [4]), the concentration for a half-maximal effect (EC50) is 249 nM.

Turning to `CS(=O)(=O)C1(CN2CCn3c(ccc(C(=O)NCc4ccc(C#N)cc4)c3=O)C2=O)CC1` [Example 46], the IC50 is 127 nM in test [1] and 6 nM in test [2]. The EC50 in test [3] (setting [4]) stood at 229 nM.

Take `CC(C)S(=O)(=O)C1(CN2CCn3c(ccc(C(=O)NCc4ccc(C#N)c(F)c4)c3=O)C2=O)CC1` [Example 33]: the values for the IC50 in test [1] and in test [2] were 48.2 nM and 1 nM, respectively. In addition, the EC50 in test [3] (setting [4]) is 33.1 nM.

Turning to `O=C(NCc1ccc(Cl)cc1)c1ccc2n(c1=O)CCN(CCC1CCCS1(=O)=O)C2=O` (stereo not drawn) [Example 50-1, N-(4-chlorobenzyl)-2-(2-(1,1-dioxidotetrahydrothiophen-2-yl)ethyl)-1,6-dioxo-2,3,4,6-tetrahydro-1H-pyrido[1,2-a]pyrazine-7-carboxamide], the figures for the IC50 in test [1] and in test [2] were 188 nM and 35.6 nM, respectively. In test [3] (setting [4]), the EC50 came out at 306 nM.

On to `CS(=O)(=O)C1(CN2CCn3c(ccc(C(=O)NCc4ccc(Cl)c(F)c4)c3=O)C2=O)CC1` [Example 41], for which the IC50 was determined as 123 nM in test [1] and 2.8 nM in test [2]. Further, the concentration giving a half-maximal response (EC50) in test [3] (setting [4]) came out at 42.9 nM.

For `CN(CCN1CCn2c(c(CO)cc(C(=O)NCc3ccc(Cl)cc3)c2=O)C1=O)S(C)(=O)=O` [Example 137, N-(4-chlorobenzyl)-9-(hydroxylmethyl)-2-(2-(N-methylmethylsulfonamido)ethyl)-1,6-dioxo-1,3,4,6-tetrahydro-2H-pyrido[1,2-a]pyrazine-7-carboxamide], the IC50 came out at 3900 nM in test [1] and 348 nM in test [2]. For the same molecule, the EC50 in test [3] (setting [4]) turned out to be 19700 nM.

Consider `CS(=O)(=O)C1(CN2CCn3c(ccc(C(=O)NCC4CCC5(CC4)CC5)c3=O)C2=O)CC1` [Example 42], for which the IC50 in test [1] worked out at 12800 nM; in test [2] it was 43.2 nM. Besides, the EC50 in test [3] (setting [4]) worked out at 7490 nM.

Turning to `CCc1cc(C(=O)NCc2ccc(Cl)cc2)c(=O)n2c1C(=O)N(CCN(C)S(C)(=O)=O)CC2` [Example 134, N-(4-chlorobenzyl)-9-ethyl-2-(2-(N-methylmethylsulfonamido)ethyl)-1,6-dioxo-1,3,4,6-tetrahydro-2H-pyrido[1,2-a]pyrazine-7-carboxamide], the IC50 in test [1] was 2120 nM; in test [2] it was 268 nM. In addition, the EC50 in test [3] (setting [4]) turned out to be 2870 nM.

`CS(=O)(=O)C1(CN2CCn3c(ccc(C(=O)NCc4ccc(C#N)cc4F)c3=O)C2=O)CC1` [Example 38]: the IC50 is 630 nM in test [1] and 12 nM in test [2]. The EC50 in test [3] (setting [4]) worked out at 868 nM.

`O=C(NCc1ccc(Cl)cc1)c1cc(C(F)(F)F)c2n(c1=O)CCN(CCN1CCCS1(=O)=O)C2=O` [Example 147]: the figures for the IC50 in test [1] and in test [2] were 5050 nM and 558 nM, respectively. For the same molecule, in test [3] (setting [4]), the EC50 was determined as 21400 nM.

In the case of `O=C(NCc1ccc(Cl)cc1)c1ccc2n(c1=O)CCN(CC1(S(=O)(=O)C3(CO)CC3)CC1)C2=O` [Example 10, N-(4-chlorobenzyl)-2-((1-((1-(hydroxymethyl)cyclopropyl)sulfonyl)cyclopropyl)methyl)-1,6-dioxo-2,3,4,6-tetrahydro-1H-pyrido[1,2-a]pyrazine-7-carboxamide], the values for the IC50 in test [1] and in test [2] were 18.8 nM and 0.3 nM, respectively. Besides, the EC50 in test [3] (setting [4]) turned out to be 4.9 nM.

For the molecule `CC(C)(C)[S+]([O-])C1(CN2CCn3c(ccc(C(=O)NCc4ccc(C#N)cc4)c3=O)C2=O)CC1` (stereo not drawn) [Example 106, 2-((1-(tert-Butylsulfinyl)cyclopropyl)methyl)-N-(4-cyanobenzyl)-1,6-dioxo-2,3,4,6-tetrahydro-1H-pyrido[1,2-a]pyrazine-7-carboxamide], the IC50 in test [1] came to 972 nM; in test [2] it was 33.4 nM. Besides, the EC50 in test [3] (setting [4]) was found to be 1120 nM.

For the molecule `Cc1cc(C(=O)NCc2ccc(Cl)cc2)c(=O)n2c1C(=O)N(CC1(S(C)(=O)=O)CC1)CC2` [Example 86-3], the values for the IC50 in test [1] and in test [2] were 45.3 nM and 1.8 nM, respectively. The EC50 in test [3] (read-out: CMV-Luc Cellular EC50) is 34.6 nM.

For the molecule `O=C(NCc1ccc(Cl)cc1)c1ccc2n(c1=O)CCN(CCN1CCCCC1=O)C2=O` [Example 57], the IC50 in test [1] is 6130 nM; in test [2] it was 374 nM. In test [3] (setting [4]), the EC50 is 7260 nM.

As to `CNS(=O)(=O)C1(CN2CCn3c(ccc(C(=O)NCc4ccc(C#N)cc4)c3=O)C2=O)CC1` [Example 75-2], the 50% inhibitory concentration (IC50) amounted to 77.3 nM in test [1] and 2.7 nM in test [2]. The EC50 in test [3] (setting [4]) turned out to be 62.2 nM.

As for `O=C(NCc1ccc(Cl)cc1)c1ccc2n(c1=O)CCN(CC1(S(=O)(=O)C3COC3)CC1)C2=O` [Example 30], the concentration for half-maximal inhibition (IC50) in test [1] came to 38 nM; in test [2] it was 1.5 nM. Also, the EC50 in test [3] (setting [4]) came out at 36.3 nM.

As to `CNS(=O)(=O)C1(CN2CCn3c(ccc(C(=O)NCc4ccc(Cl)cc4)c3=O)C2=O)CC1` [Example 74-2], the results for the IC50 in test [1] and in test [2] were 52.1 nM and 1.6 nM, respectively. For the same molecule, the EC50 in test [3] (setting [4]) came out at 14.5 nM.

On to `Cc1cc(C(=O)NCc2ccc(C#N)cc2)c(=O)n2c1C(=O)N(CC1(S(=O)(=O)C3CC3)CC1)CC2` [Example 93-1, N-(4-cyanobenzyl)-2-((1-(cyclopropylsulfonyl)cyclopropyl)methyl)-9-methyl-1,6-dioxo-2,3,4,6-tetrahydro-1H-pyrido[1,2-a]pyrazine-7-carboxamide], for which the IC50 in test [1] is 46.7 nM; in test [2], 1.1 nM. In test [3] (setting [4]), the EC50 is 38.6 nM.

(Values after patent publication US12466821B2 (Novartis AG, priority 2018, dated 2025).)
